Where a name gives a salt, the structure may show the parent alone.

This assay deals with KK mice (4-5 months old) suffering from diabetes mellitus. In words: Hypoglycemic activity: blood sugar lowering in diabetic KK mice fed the test compound. Format: in vivo. To be noted: 4 per group, powdered feed containing 0.01% of test compound for 3 days, plasma glucose vs control group. The source says: Blood was collected from the tail veins of KK mice (4-5 months old) suffering from diabetes mellitus, and it was subjected to an assay of the blood sugar level. The mice were divided in groups (4 mice per group) as to have equal blood sugar levels on average in each group. Powdered mouse feed (F-1, Funabashi Farm) containing 0.01% of a test compound was given the mice for 3 days. Those mice groups fed with the test compound were referred to as “drug treated group”. Further, those groups fed with powdered feed free of the test compound were referred to as “control group”. Blood was collected from the tail veins of the mice 3 days later and was subjected to a centrifuge, and the glucose concentration in the resultant plasma was assayed with a glucose analyzer (Glucoloader, A&T Company). The average blood sugar lowering rate was calculated from the following formula:
Blood sugar lowering rate (%)=(Average blood sugar level in control group−Average blood sugar level in drug treated group)×100/Blood sugar level in control group
`Cn1c(COc2ccc(CC(OCc3ccc(F)cc3)C(=O)O)cc2)nc2ccc(Oc3ccc(C45CC6CC(CC(C6)C4)C5)cc3)cc21` (centres unmarked) [Example 2, 3-[4-[6-(4-Adamantan-1-ylphenoxy)-1-methyl-1H-benzimidazol-2-ylmethoxy]phenyl]-2-(4-fluorobenzyloxy)propionic acid]: the “Blood sugar lowering rate (%)” value is reported as 58.5%. `Cn1c(COc2ccc(CC(OCc3ccc(F)cc3)C(=O)O)cc2)nc2ccc(Sc3cc(C(C)(C)C)c(O)c(C(C)(C)C)c3)cc21` (centres unmarked) [Example 4, 3-[4-[6-(3,5-Di-t-butyl-4-hydroxyphenylthio)-1-methyl-1H-benzimidazol-2-ylmethoxy]phenyl]-2-(4-fluorobenzyloxy)propionic acid]: the “Blood sugar lowering rate (%)” value is 40.8%. The result for `CCOC(Cc1ccc(OCc2nc3ccc(OC)cc3n2C)cc1)C(=O)O.Cl` (centres unmarked) [Example 9, 2-Ethoxy-3-[4-(1-methyl-6-methoxy-1H-benzimidazol-2-ylmethoxy)phenyl]propionic acid hydrochloride] reads 48.4%; that for `COC(=O)[C@H](Cc1ccc(OCc2nc3ccc(OC)cc3n2C)cc1)Nc1ccccc1C(=O)c1ccccc1.Cl` [Example 16, N-(2-Benzoylphenyl)-4-(6-methoxy-1-methyl-1H-benzimidazol-2-ylmethoxy)phenylalanine methyl ester hydrochloride], 32.1%; that for `Cc1cc(Oc2ccc3nc(COc4ccc(C[C@H](Nc5ccccc5C(=O)c5ccccc5)C(=O)O)cc4)n(C)c3c2)cc(C)c1N` [Example 20, 4-[6-(4Amino-3 ,5dimethylphenoxy)-1-methyl-1H-benzimidazol-2-ylmethoxy]-N-(2-benzoylphenyl)phenylalanine dihydrochloride], 40.0%.
